Structures are written as SMILES. The source made the active and inactive calls.

Data set [1] deals with Cytochrome P450 2C19 (Homo sapiens, UniProt P33261). The data set is described as follows: Cytochrome panel assay with activity outcomes. Panel member name: p450-cyp2c19 Compounds with AC50 equal or less than 10 uM are considered active. It counts as functional.
A short description of data set [2]: NIH3T3 cell viability loss – ATP luminescence, mouse fibroblasts, counter-screen, dose response (AID 2010).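 Note: cells exposed to compound for about 90 hours before reading.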 It counts as functional, cell-based. (The purpose of a counterscreen is to sort out artefacts and off-target activity.)
Data set [3] is described as follows: Trypanosoma cruzi growth suppression in host cells – NIH3T3 host cells, beta-gal luminescence, confirmation (AID 2044).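 Note: intracellular parasites grown in NIH/3T3 mouse fibroblasts as host cells; luminescent beta-galactosidase reporter signal from transgenic T. cruzi replicating inside host cells; inhibitors lower the luminescence signal.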 It counts as functional, cell-based.
The target in data set [4] is T1, Cytochrome P450 1A2 (Homo sapiens, UniProt P05177).
T1 sequence (P05177 whole entry): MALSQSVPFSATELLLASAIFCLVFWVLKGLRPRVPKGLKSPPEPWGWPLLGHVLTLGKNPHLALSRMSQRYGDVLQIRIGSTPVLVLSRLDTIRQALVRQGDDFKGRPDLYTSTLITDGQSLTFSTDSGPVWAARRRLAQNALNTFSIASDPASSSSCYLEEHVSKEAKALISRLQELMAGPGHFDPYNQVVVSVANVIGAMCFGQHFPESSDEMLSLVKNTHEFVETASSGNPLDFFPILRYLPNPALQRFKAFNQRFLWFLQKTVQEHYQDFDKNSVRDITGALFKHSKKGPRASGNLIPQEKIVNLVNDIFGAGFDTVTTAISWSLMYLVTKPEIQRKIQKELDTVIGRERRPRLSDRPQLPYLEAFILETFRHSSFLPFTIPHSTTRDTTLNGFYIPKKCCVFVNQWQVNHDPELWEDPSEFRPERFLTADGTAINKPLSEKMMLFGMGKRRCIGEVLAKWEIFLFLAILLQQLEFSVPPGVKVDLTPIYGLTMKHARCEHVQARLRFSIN

Chain of Cytochrome P450 2C19 (P33261 whole entry): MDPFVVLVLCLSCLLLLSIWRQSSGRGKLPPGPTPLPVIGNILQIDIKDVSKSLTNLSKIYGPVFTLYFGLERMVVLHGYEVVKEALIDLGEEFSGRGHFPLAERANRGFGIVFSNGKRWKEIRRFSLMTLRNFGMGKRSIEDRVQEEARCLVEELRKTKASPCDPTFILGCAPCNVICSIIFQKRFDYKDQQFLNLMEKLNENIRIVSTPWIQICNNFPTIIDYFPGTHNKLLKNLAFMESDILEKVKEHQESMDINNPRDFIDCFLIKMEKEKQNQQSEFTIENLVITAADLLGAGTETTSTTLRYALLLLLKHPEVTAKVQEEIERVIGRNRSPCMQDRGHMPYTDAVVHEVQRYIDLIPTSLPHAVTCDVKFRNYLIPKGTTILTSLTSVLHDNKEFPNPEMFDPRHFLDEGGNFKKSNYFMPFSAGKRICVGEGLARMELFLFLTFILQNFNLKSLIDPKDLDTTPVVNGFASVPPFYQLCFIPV

For orientation: AC50 means the concentration at which the activity in the assay is half-maximal. Take `O=C(O)CCSCc1ccccc1`: the AC50 result in data set [1] is reported as “inconclusive”.

The term EC50 denotes the concentration that produces a half-maximal response. With `CCN(CC)CCNc1nc(-c2ccccc2)c2c(c1C#N)CC(C)(C)OC2`, the EC50 in data set [2] is > 60 µM (not active); in data set [3], 0.332 µM (active).

As to `NC(=O)CNC(=O)[C@@H]1CC2(CC(c3ccccc3)=NO2)CN1C(=O)c1ccc(Br)cc1` (stereo partly drawn), the AC50 is 25.1 µM (inconclusive) in data set [4] and 39.8 µM (inconclusive) in data set [1] (read-out: AC50).

Consider `CC(C)(C)C(C(Oc1ccc(Cl)cc1)n1cncn1)n1nnnc1C(c1cccc(Cl)c1)N1CCCCC1` (stereo not drawn), for which the figures for the half-maximal effective concentration (EC50) in data set [2] and in data set [3] were > 60 µM (not active) and 1.59 µM (active), respectively.

For the compound `N#CCCn1c(=O)c(CCc2ccccc2)nc2cnc(Oc3ccccc3)nc21`, in data set [4], the AC50 is 12.6 µM (inconclusive).

In the case of `CCOc1cccc(C2C(C(=O)c3ccc(C)o3)=C(O)C(=O)N2Cc2ccncc2)c1` (stereo not drawn), the concentration at half-maximal activity (AC50) in data set [4] and in data set [1] (read-out: AC50) was 39.8 µM (inconclusive) each time.

`O=C(CNC(=S)N(Cc1ccccc1)Cc1cccnc1)NC1CCCCC1`: the values for the EC50 in data set [2] and in data set [3] were 11.1 µM (active) and 0.516 µM (active), respectively.

For `CCCCNC(=O)c1cc2c(=O)n3cccc(C)c3nc2n(Cc2ccccc2)c1=N`, the EC50 is > 60 µM (not active) in data set [2] and 3.03 µM (active) in data set [3].

Turning to `N[C@@H](Cn1cc(I)c(=O)[nH]c1=O)C(=O)O`, the AC50 in data set [4] was 39.8 µM (inconclusive).

`Cc1ccc(OC(F)F)c(NC(=O)Nc2cccc(C(F)(F)F)c2)c1`: the EC50 in data set [2] is > 60 µM (not active); in data set [3] it was 2.41 µM (active).

In the case of `Cc1nc2ccccc2c(=O)n1-n1cnnc1`, the AC50 in data set [4] is 3.16 µM (inconclusive).

As for `COc1ccc(-c2nc3cnc(N4CCN(C)CC4)nc3n(C3CC3)c2=O)cc1`, the concentration at half-maximal activity (AC50) in data set [4] is 20 µM (inconclusive).

For the compound `COc1ccc(NC(=O)c2cc(-c3cccnc3)nc3c(C)c(C)ccc23)c(OC)c1`, the EC50 in data set [2] was > 60 µM (not active); in data set [3], 2.69 µM (active).

On to `O=C(CSc1nnc(COc2ccc(F)cc2)o1)N1c2ccccc2CCc2ccccc21`, for which the EC50 is > 60 µM (not active) in data set [2] and 1 µM (active) in data set [3].

Take `N=C(N)N/N=C/c1ccc(Br)cc1`: the values for the EC50 in data set [2] and in data set [3] were 6.37 µM (active) and 0.141 µM (active), respectively.

Consider `CN(Cc1ccco1)c1cc(-c2cccnc2)ncn1`, for which the AC50 in data set [1] (read-out: AC50) is 20 µM (inconclusive).

With `CCOC(=O)C1CCCN(C(=O)CCCOc2cc(=O)n(C)c3ccccc23)C1` (stereo not drawn), the AC50 in data set [4] is 25.1 µM (inconclusive).

As for `Cc1s/c(=N\C(=O)c2ccco2)n(C)c1-c1ccc(F)cc1`, the AC50 in data set [1] (read-out: AC50) was 3.55 µM (inconclusive).

`N#Cc1ccc(-c2ccc(OCC(O)CN3CCCCC3)cc2)cc1` (stereo not drawn): the EC50 in data set [2] is 12.1 µM (active); in data set [3] it was 1.98 µM (active).

For `NS(=O)(=O)c1cc2c(cc1C(F)(F)F)N[C@H](Cc1ccccc1)NS2(=O)=O`, the concentration at half-maximal activity (AC50) in data set [4] is 15.8 µM (inconclusive).

Consider `O=C(Nc1nc2c(s1)CCCC2)c1ccc(S(=O)(=O)N2CCCc3ccccc32)cc1`, for which the EC50 in data set [2] was > 60 µM (inconclusive); in data set [3], 2.07 µM (active).

For `CN(Cc1c[nH]c2ccccc12)C1CCCCC1`, the EC50 was 23.9 µM (active) in data set [2] and 0.699 µM (active) in data set [3].

For `CC(=O)N(C)c1nnc(-c2cnccn2)s1`, the AC50 entry in data set [1] was “inconclusive”.

As for `CSc1ccc2c(c1)N(CC[C@H]1CCCCN1C)c1ccccc1S2`, the AC50 in data set [1] (read-out: AC50) is 20 µM (inconclusive).

For the compound `O=c1[nH]c2c(S)nc(O)nc2n1-c1ccccc1`, the concentration at half-maximal activity (AC50) result in data set [1] is “inconclusive”.

Consider `CCCS(=O)(=O)N1CCN(CC2CC=CCC2)CC1` (stereo not drawn), for which the AC50 in data set [4] was 12.6 µM (inconclusive).

For the compound `O=[N+]([O-])c1ccc(C[S+]([O-])Cc2ccccc2)cc1` (stereo not drawn), in data set [4], the AC50 is 3.16 µM (inconclusive).

In the case of `O=C(COc1ccc(F)cc1)Nc1cc(S(=O)(=O)N2CCCCC2)ccc1N1CCCCC1`, the EC50 in data set [2] was > 60 µM (not active); in data set [3] it was 2.15 µM (active).

As for `c1csc(CNc2ccnc(-c3ccoc3)n2)c1`, the AC50 in data set [1] (read-out: AC50) was 31.6 µM (inconclusive).

These data come from ChEMBL document CHEMBL1201862, “PubChem BioAssay data set” (2004).
